Literature values in patent publication US20260355142A1, “AMORPHOUS OTE[…] COMPOSITIONS AND USES THEREOF AND DOSAGE REGIMENS FOR OTENAPROXESUL” (ANTIBE THERAPEUTICS INC., priority 2022, published 2026).

Conditions: efficacious dose of naproxen, known in the art; cited from earlier work

SMILES: COc1ccc2cc([C@H](C)C(=O)O)ccc2c1 [naproxen, (2S)-2-(6-methoxynaphthalen-2-yl) propanoic acid]
- patients with noticeable GI injury: approximately 30%
